From ChEMBL document CHEMBL1127281, “Synthesis and anti-herpes activity of some a-ring functionalized dehydroabietane derivatives” (Bioorg Med Chem Lett, 1994)
Converted amounts (≈) assume the structure as drawn.

Assays:
[1] = Concentration required for 50% inhibition of herpes simplex virus 2(HSV-2) using standard plaque reduction assay in vero cells; format: functional, cell-based; conditions: Chlorocebus sabaeus
[2] = test system: Vero; experiment: Concentration required for 50% inhibition of herpes simplex virus 2 (HSV-2) using standard plaque reduction assay in vero cells; format: functional, cell-based; conditions: Chlorocebus sabaeus

Row | IC50 [1] | SMILES | IC50 [2]
1 | 8 mg/L (≈ 29.4 µM) | CC(C)c1ccc2c(c1)CC[C@H]1C(=O)[C@@H](O)CC[C@]21C | –
2 | 19 mg/L (≈ 69.2 µM) | CC(C)c1ccc2c(c1)CC[C@H]1[C@H](O)[C@@H](O)CC[C@]21C | –
3 | 20 mg/L (≈ 66.6 µM) | CC(C)c1ccc2c(c1)CC[C@H]1[C@](C)(C(=O)O)CCC[C@]21C [DEHYDROABIETIC ACID] | –
4 | 14 mg/L (≈ 48.5 µM) | CC(C)c1ccc2c(c1)CC[C@H]1[C@@](O)(CO)CCC[C@]21C | –
5 | 20 mg/L (≈ 54.7 µM) | CC(C)c1ccc2c(c1)CC[C@H]1[C@](C)(Sc3ccccn3)CCC[C@]21C | –
6 | 9 mg/L (≈ 33 µM) | CC(C)c1ccc2c(c1)CC[C@H]1[C@@H](CO)CCC[C@]21C | –
7 | 3 mg/L (≈ 11.1 µM) | C=C1[C@@H](O)CC[C@]2(C)c3ccc(C(C)C)cc3CC[C@@H]12 | –
8 | 17 mg/L (≈ 59.3 µM) | CC(C)c1ccc2c(c1)CC[C@H]1[C@](C)(CO)CCC[C@]21C [POMIFERIN A] | –
9 | 20 mg/L (≈ 63.6 µM) | COC(=O)[C@]1(C)CCC[C@]2(C)c3ccc(C(C)C)cc3CC[C@@H]12 [METHYL DEHYDROABIETATE] | –
10 | 10 mg/L (≈ 39.3 µM) | C=C1CCC[C@]2(C)c3ccc(C(C)C)cc3CC[C@@H]12 | –
11 | 14 mg/L (≈ 54.6 µM) | CC(C)c1ccc2c(c1)CC[C@H]1C(=O)CCC[C@]21C | –
12 | – | C[C@]12CC[C@]3(C1)[C@H](CC2=O)C[C@@H](OC(=O)c1ccccc1)[C@H]1[C@](C)(C(=O)O)CCC[C@@]13C [SCOPADULCIC ACID B] | 0.2 mg/L (≈ 0.456 µM)
13 | 15 mg/L (≈ 58 µM) | CC(C)c1ccc2c(c1)CC[C@H]1[C@@H](O)CCC[C@]21C | –
14 | 9 mg/L (≈ 29.6 µM) | CC(C)c1ccc2c(c1)CC[C@H]1[C@@](O)(CO)[C@@H](O)CC[C@]21C | –
15 | 20 mg/L (≈ 69.3 µM) | CC(C)c1ccc2c(c1)CC[C@H]1[C@@H](CO)[C@@H](O)CC[C@]21C | –
16 | 20 mg/L (≈ 74 µM) | CC(C)c1ccc2c(c1)CC[C@H]1[C@]3(CCC[C@]21C)CO3 | –

Row | SMILES | IC50 [1] | IC50 [2]
17 | C[C@@]1(CO)[C@H](O)CC[C@@]2(C)[C@H]1CCC1C[C@@H]3C[C@@]12CC[C@]3(O)CO (stereo partly drawn) | 0.2 mg/L (≈ 0.591 µM) | –
18 | Nc1nc2c(ncn2COCCO)c(=O)[nH]1 [ACYCLOVIR] | 1.5 mg/L (≈ 6.66 µM) | –
